Values of other authors, collected in PMC3215888 (Cancer Chemotherapy and Pharmacology, 2011).

Tested on: Aurora kinase A mutation (T217D)
Settings: cited from earlier work

Structure (SMILES): O=C(O)c1ccc(Nc2ncc3c(n2)-c2ccc(Cl)cc2C(c2c(F)cccc2F)=NC3)cc1 [MLN8054, reference compound]
- inhibition of Aurora kinase A T217D mutant: impervious
